# Measured values taken from patent publication US5140044A, “UCN-1028D derivatives” (Kyowa Hakko Kogyo Co., Ltd., priority 1989, dated 1992).
# Where two headings read alike, the source gives them in different places.
# Tests used:
# [1] = target: Protein Kinase C; test: Protein kinase C inhibitory activity (method of Kikkawa et al.; crude enzyme from rat brain, Histone Type II S phosphorylation); assay type: biochemical; settings: crude enzyme partially purified from rat brain; [γ-32P]ATP, 30° C., 3 minutes, pH 7.5
# Description: Protein kinase C inhibitory activity
# The protein kinase C inhibitory activity was measured by the method of Kikkawa, et al. [Journal of Biological Chemistry, 257, 13341 (1982)].
# That is, 10 μl of a test solution containing a UCN-1028D derivative was added to 250 μl of a solution containing 2.5 μmoles of magnesium acetate, 50 μg of Histone Type II S (manufactured by Sigma Co., Ltd.), 20 μg of phosphatidyl serine, 0.8 μg of diolein, 25 nmoles of CaCl2, 5 μg of crude enzyme (partially purified from rat brain according to the method of Kikkawa, et al.) and 5 μmoles of Tris-hydrochloride buffer (pH 7.5), followed by incubation at 30° C. for 3 minutes. Then, phosphorylation was initiated by addition of 1.25 nmoles of [γ-^32 P]ATP (5 to 10×10^3 cpm/nmole), followed by incubation at 30° C. for 3 minutes The reaction was stopped by adding 25% trichloroacetic acid (TCA), and the reaction solution was filtered through a cellulose acetate membrane (pore size: 0.45 μm) (manufactured by Toyo Filter Paper Co., Ltd.). After the membrane was washed four times with 5% TCA, radioactivity remaining on the membrane was measured. As a control, the same procedure as above was repeated without addition of the test solution and radioactivity was likewise measured. The concentration of the test solution showing 50% inhibition as compared with the control was expressed as IC50.
# [2] = test system: BALB 3T3/H-ras; test: Anti-tumor activity: growth inhibition of BALB 3T3 cells transformed with H-ras (Giemsa staining); assay type: cell-based; settings: for IC50: Mus musculus, BALB/3T3, 72 h, read-out: IC50 BALB 3T3/H-ras Inhibitory Activity
# Description: The anti-tumor activity was determined using BALB 3T3 cells transformed with the carcinogenic gene H-ras (hereafter referred to as BALB 3T3/H-ras).
# BALB 3T3/H-ras cells were suspended in a medium comprising DME medium (manufactured by Nissui Pharmaceutical Co., Ltd.) and 10% fetal calf serum (hereafter referred to as medium A) to a concentration of 3.0×10^4 /cells ml. The cell suspension thus prepared was put into wells of a 96-well microtiter plate in an amount of 0.1 ml per well. After culturing at 37° C. for 20 hours in a CO2 -incubator, 0.1 ml each of a test solution appropriately diluted with medium A was added to each well. The cells were further cultured at 37° C. for 72 hours in the CO2 -incubator and the culture supernatant was removed. After being washed once with physiological saline, the residue was treated with 0.1 ml of methanol for 10 minutes to fix the cells. Thereafter, the cells were stained with 0.1 ml of Giemsa staining solution [Giemsa staining stock solution (Merck Art 9204; manufactured by Merck Inc.) : physiological saline=1 : 10] for 5 minutes. After the staining solution was removed, the residue was washed once with 0.2 ml of water. The pigment was extracted with 0.2 ml of 0.1 N hydrochloric acid and the absorbance at 620 nm was measured with a microplate reader. By comparing the absorbance of untreated cells with those of the cells treated with the test compound at known concentrations, the concentration of the test compound at which the growth of the cells is inhibited by 50% (IC50) was calculated.
# [3] = growth inhibition, 72 hours, 37° C., Giemsa staining, absorbance at 620 nm
SMILES,IC50 Protein Kinase C Inhibitory Activity [1],IC50 [2],"IC50 BALB 3T3/H-ras Inhibitory Activity [2, 3]","IC50 [2, 3]"
"COc1ccc(C(=O)O[C@H](C)Cc2c(OC)c(=O)c3c(O)cc(OC)c4c5c(OC)cc(O)c6c(=O)c(OC)c(C[C@@H](C)OC(=O)c7ccc(OC)cc7)c(c2c34)c65)cc1 [Compound 27, 14,17-bis-O-p-methoxybenzoyl UCN-1028D]",0.05 µg/mL,0.026 µg/mL,,
"COC(=O)c1ccc(C(=O)O[C@H](C)Cc2c(OC)c(=O)c3c(O)cc(OC)c4c5c(OC)cc(O)c6c(=O)c(OC)c(C[C@@H](C)OC(=O)c7ccc(C(=O)OC)cc7)c(c2c34)c65)cc1 [Compound 28, 14,17-bis-O-p-methoxycarbonylbenzoyl UCN-1028D]",0.084 µg/mL,0.068 µg/mL,,
"COc1c(C[C@@H](C)OC(=O)c2ccc(C)cc2)c2c3c(C[C@@H](C)OC(=O)c4ccc(C)cc4)c(OC)c(=O)c4c(O)cc(OC)c(c5c(OC)cc(O)c(c1=O)c52)c43 [Compound 29, 14,17-bis-O-p-methylbenzoyl UCN-1028D]",0.06 µg/mL,0.022 µg/mL,,
"COc1c(C[C@@H](C)OC(=O)c2ccc([N+](=O)[O-])cc2)c2c3c(C[C@@H](C)OC(=O)c4ccc([N+](=O)[O-])cc4)c(OC)c(=O)c4c(O)cc(OC)c(c5c(OC)cc(O)c(c1=O)c52)c43 [Compound 30, 14,17-bis-O-p-nitrobenzoyl UCN-1028D]",0.11 µg/mL,0.07 µg/mL,,
"COc1c(C[C@@H](C)OC(=O)c2cccc3ccccc23)c2c3c(C[C@@H](C)OC(=O)c4cccc5ccccc45)c(OC)c(=O)c4c(O)cc(OC)c(c5c(OC)cc(O)c(c1=O)c52)c43 [Compound 31, 14,17-di-O-1-naphthoyl UCN-1028D]",0.19 µg/mL,1.5 µg/mL,,
"COc1c(C[C@@H](C)OC(=O)c2ccc3ccccc3c2)c2c3c(C[C@@H](C)OC(=O)c4ccc5ccccc5c4)c(OC)c(=O)c4c(O)cc(OC)c(c5c(OC)cc(O)c(c1=O)c52)c43 [Compound 32, 14,17-di-O-2-naphthoyl UCN-1028D]",0.1 µg/mL,1.2 µg/mL,,
"COc1c(C[C@@H](C)OC(=O)c2ccncc2)c2c3c(C[C@@H](C)OC(=O)c4ccncc4)c(OC)c(=O)c4c(O)cc(OC)c(c5c(OC)cc(O)c(c1=O)c52)c43 [Compound 33, 14,17-di-O-isonicotinyl UCN-1028D]",0.15 µg/mL,0.038 µg/mL,,
"COc1c(C[C@@H](C)OC(=O)c2ccco2)c2c3c(C[C@@H](C)OC(=O)c4ccco4)c(OC)c(=O)c4c(O)cc(OC)c(c5c(OC)cc(O)c(c1=O)c52)c43 [Compound 35, 14,17-di-O-2-furoyl UCN-1028D]",0.11 µg/mL,0.12 µg/mL,,
"COC(=O)O[C@H](C)Cc1c(OC)c(=O)c2c(O)cc(OC)c3c4c(OC)cc(O)c5c(=O)c(OC)c(C[C@@H](C)OC(=O)OC)c(c1c23)c54 [Compound 36, 14,17-bis-O-methoxycarbonyl UCN-1028D]",0.29 µg/mL,0.13 µg/mL,,
"COc1c(C[C@@H](C)OC(=O)OCc2ccccc2)c2c3c(C[C@@H](C)OC(=O)OCc4ccccc4)c(OC)c(=O)c4c(O)cc(OC)c(c5c(OC)cc(O)c(c1=O)c52)c43 [Compound 37, 14,17-bis-O-benzyloxycarbonyl UCN-1028D]",0.052 µg/mL,0.04 µg/mL,,
"COc1c(C[C@@H](C)OC(=O)Oc2ccccc2)c2c3c(C[C@@H](C)OC(=O)Oc4ccccc4)c(OC)c(=O)c4c(O)cc(OC)c(c5c(OC)cc(O)c(c1=O)c52)c43 [Compound 38, 14,17-bis-O-phenyloxycarbonyl UCN-1028D]",0.058 µg/mL,0.015 µg/mL,,
"COc1c(C[C@@H](C)OS(C)(=O)=O)c2c3c(C[C@@H](C)OS(C)(=O)=O)c(OC)c(=O)c4c(O)cc(OC)c(c5c(OC)cc(O)c(c1=O)c52)c43 [Compound 39, 14,17-bis-O-methanesulfonyl UCN-1028D]",0.5 µg/mL,0.35 µg/mL,,
"COc1c(C[C@@H](C)OS(=O)(=O)c2ccc(C)cc2)c2c3c(C[C@@H](C)OS(=O)(=O)c4ccc(C)cc4)c(OC)c(=O)c4c(O)cc(OC)c(c5c(OC)cc(O)c(c1=O)c52)c43 [Compound 40, 14,17-bis-O-p-toluenesulfonyl UCN-1028D]",0.066 µg/mL,0.04 µg/mL,,
"CCCNC(=O)O[C@H](C)Cc1c(OC)c(=O)c2c(O)cc(OC)c3c4c(OC)cc(O)c5c(=O)c(OC)c(C[C@@H](C)OC(=O)NCCC)c(c1c23)c54 [Compound 41, 14,17-bis-O-propylaminocarbonyl UCN-1028D]",0.94 µg/mL,0.68 µg/mL,,
"COc1c(C[C@@H](C)OC(=O)Nc2ccccc2)c2c3c(C[C@@H](C)OC(=O)Nc4ccccc4)c(OC)c(=O)c4c(O)cc(OC)c(c5c(OC)cc(O)c(c1=O)c52)c43 [Compound 42, 14,17-bis-O-phenylaminocarbonyl UCN-1028D]",0.021 µg/mL,0.075 µg/mL,,
"COc1c(C[C@@H](C)O)c2c3c(C[C@@H](C)O)c(OC)c(=O)c4c(O)cc(OC)c(c5c(OC)cc(O)c(c1=O)c52)c43 [Compound 43, UCN-1028 iso-D]",0.74 µg/mL,,1.0 µg/mL,
"COc1c(C[C@@H](C)OC(=O)c2ccccc2)c2c3c(C[C@@H](C)OC(=O)c4ccccc4)c(OC)c(=O)c4c(O)cc(OC)c(c5c(OC)cc(O)c(c1=O)c52)c43 [Compound 44, 14,17-di-O-benzoyl UCN-1028 iso-D]",0.025 µg/mL,,,0.52 µg/mL
"COc1c(C[C@@H](C)O)c2c3c(C[C@@H](C)O)c(OC)c(=O)c4c(O)cc(OC)c(c5c(OC)cc(O)c(c1=O)c52)c43 [Compound 45, UCN-1028D]",3.5 µg/mL,,2.2 µg/mL,
